Assay results published in ChEMBL document CHEMBL3797031, “Structure-activity relationship study of 4-substituted piperidines at Leu26 moiety of novel p53-hDM2 inhibitors” (Bioorg Med Chem Lett, 2016).

Biological target: T1, E3 ubiquitin-protein ligase Mdm2 (Homo sapiens, UniProt Q00987)
T1 sequence (Q00987 whole entry): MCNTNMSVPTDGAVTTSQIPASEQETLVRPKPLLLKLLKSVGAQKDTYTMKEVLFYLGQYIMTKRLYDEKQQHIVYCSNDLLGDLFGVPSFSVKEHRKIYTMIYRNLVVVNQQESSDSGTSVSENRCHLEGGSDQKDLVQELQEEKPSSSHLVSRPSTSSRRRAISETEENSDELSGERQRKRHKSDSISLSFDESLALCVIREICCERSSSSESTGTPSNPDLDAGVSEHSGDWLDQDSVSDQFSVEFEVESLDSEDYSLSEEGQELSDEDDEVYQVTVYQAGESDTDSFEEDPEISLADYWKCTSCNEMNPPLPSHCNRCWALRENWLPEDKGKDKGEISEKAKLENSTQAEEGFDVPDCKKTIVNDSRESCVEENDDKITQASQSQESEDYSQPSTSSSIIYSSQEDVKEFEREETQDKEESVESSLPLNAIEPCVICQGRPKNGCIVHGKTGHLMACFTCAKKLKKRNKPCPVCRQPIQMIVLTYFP
Test: Binding affinity to human MDM2 assessed as inhibition of interaction with p53 by fluorescence polarization assay
Details: not given
CCC[C@H]1N(C(=O)c2cnccc2C(F)(F)F)CCC[C@@]1(Oc1ccc(C(F)(F)F)cc1)C(=O)N1CCC(Oc2ccc(Cl)cc2)CC1 gave an IC50 of 4110 nM.
Compound CCC[C@H]1N(C(=O)c2cnccc2C(F)(F)F)CCC[C@@]1(Oc1ccc(C(F)(F)F)cc1)C(=O)N1CCC(Oc2cccc(C)n2)CC1 has an IC50 of 5030 nM.
For CCC[C@H]1N(C(=O)c2cnccc2C(F)(F)F)CCC[C@@]1(Oc1ccc(C(F)(F)F)cc1)C(=O)N1CCC(Oc2ncccc2CN)CC1, the IC50 was 7740 nM.
With CCC[C@H]1N(C(=O)c2cnccc2C(F)(F)F)CCC[C@@]1(Oc1ccc(C(F)(F)F)cc1)C(=O)N1CCC(Oc2cccc(C(=O)NC)n2)CC1 the IC50 was 114 nM.
Compound CCC[C@H]1N(C(=O)c2cnccc2C(F)(F)F)CCC[C@@]1(Oc1ccc(C(F)(F)F)cc1)C(=O)N1CCC(Oc2cccc(C(F)(F)F)n2)CC1 has an IC50 of 2040 nM.
With CCC[C@H]1N(C(=O)c2cnccc2C(F)(F)F)CCC[C@@]1(Oc1ccc(C(F)(F)F)cc1)C(=O)N1CCC(Oc2cccc(C(=O)OC)n2)CC1 the IC50 was 392 nM.
With CCC[C@H]1N(C(=O)c2cnccc2C(F)(F)F)CCC[C@@]1(Oc1ccc(C(F)(F)F)cc1)C(=O)N1CCC(Oc2cccc(C(N)=O)n2)CC1 the IC50 was 111 nM.
Compound CCC[C@H]1N(C(=O)c2cnccc2C(F)(F)F)CCC[C@@]1(Oc1ccc(C(F)(F)F)cc1)C(=O)N1CCC(Oc2ncccc2C#N)CC1 has an IC50 of 2400 nM.
CCC[C@H]1N(C(=O)c2cnccc2C(F)(F)F)CCC[C@@]1(Oc1ccc(C(F)(F)F)cc1)C(=O)N1CCC(Oc2cccc(C#N)c2)CC1 showed an IC50 of 399 nM.
CCC[C@H]1N(C(=O)c2cnccc2C(F)(F)F)CCC[C@@]1(Oc1ccc(C(F)(F)F)cc1)C(=O)N1CCC(Oc2cccc(C(=O)O)n2)CC1 showed an IC50 of 42 nM.
Work on CCC[C@H]1N(C(=O)c2cnccc2C(F)(F)F)CCC[C@@]1(Oc1ccc(C(F)(F)F)cc1)C(=O)N1CCC(Oc2ccccn2)CC1 yielded an IC50 of 150 nM.
Work on CCC[C@H]1N(C(=O)c2cnccc2C(F)(F)F)CCC[C@@]1(Oc1ccc(C(F)(F)F)cc1)C(=O)N1CCC(Cc2ccccc2)CC1 yielded an IC50 of 5830 nM.
CCC[C@H]1N(C(=O)c2cnccc2C(F)(F)F)CCC[C@@]1(Oc1ccc(C(F)(F)F)cc1)C(=O)N1CCC(Oc2cccc(Br)n2)CC1 showed an IC50 of 1860 nM.
Work on CCC[C@H]1N(C(=O)c2cnccc2C(F)(F)F)CCC[C@@]1(Oc1ccc(C(F)(F)F)cc1)C(=O)N1CCC(Oc2ccccc2)CC1 yielded an IC50 of 2400 nM.
CCC[C@H]1N(C(=O)c2cnccc2C(F)(F)F)CCC[C@@]1(Oc1ccc(C(F)(F)F)cc1)C(=O)N1CCC(Oc2cncnc2)CC1 gave an IC50 of 525 nM.
For CCC[C@H]1N(C(=O)c2cnccc2C(F)(F)F)CCC[C@@]1(Oc1ccc(C(F)(F)F)cc1)C(=O)N1CCC(Oc2cc(C#N)ccn2)CC1, the IC50 was 293 nM.
Compound CCC[C@H]1N(C(=O)c2cnccc2C(F)(F)F)CCC[C@@]1(Oc1ccc(C(F)(F)F)cc1)C(=O)N1CCC(Oc2ccccc2C)CC1 has an IC50 of 6600 nM.
For CCC[C@H]1N(C(=O)c2cnccc2C(F)(F)F)CCC[C@@]1(Oc1ccc(C(F)(F)F)cc1)C(=O)N1CCC(Oc2ncccn2)CC1, the IC50 was 334 nM.
Compound CCC[C@H]1N(C(=O)c2cnccc2C(F)(F)F)CCC[C@@]1(Oc1ccc(C(F)(F)F)cc1)C(=O)N1CCC(Oc2ncccc2C(N)=O)CC1 has an IC50 of 4280 nM.
CCC[C@H]1N(C(=O)c2cnccc2C(F)(F)F)CCC[C@@]1(Oc1ccc(C(F)(F)F)cc1)C(=O)N1CCC(Oc2cccc(CN)n2)CC1 showed an IC50 of 173 nM.
Compound CCC[C@H]1N(C(=O)c2cnccc2C(F)(F)F)CCC[C@@]1(Oc1ccc(C(F)(F)F)cc1)C(=O)N1CCC(Cc2ccc(C)cc2)CC1 has an IC50 of 25800 nM.
For CCC[C@H]1N(C(=O)c2cnccc2C(F)(F)F)CCC[C@@]1(Oc1ccc(C(F)(F)F)cc1)C(=O)N1CCC(Oc2ccc(C#N)cc2)CC1, the IC50 was 1920 nM.
Work on CCC[C@H]1N(C(=O)c2cnccc2C(F)(F)F)CCC[C@@]1(Oc1ccc(C(F)(F)F)cc1)C(=O)N1CCC(Oc2ccncc2)CC1 yielded an IC50 of 224 nM.
CCC[C@H]1N(C(=O)c2cnccc2C(F)(F)F)CCC[C@@]1(Oc1ccc(C(F)(F)F)cc1)C(=O)N1CCC(Oc2ccc(C#N)cn2)CC1 showed an IC50 of 492 nM.
Compound CCC[C@H]1N(C(=O)c2cnccc2C(F)(F)F)CCC[C@@]1(Oc1ccc(C(F)(F)F)cc1)C(=O)N1CCC(Oc2cccnc2)CC1 has an IC50 of 267 nM.
In the case of CCC[C@H]1N(C(=O)c2cnccc2C(F)(F)F)CCC[C@@]1(Oc1ccc(C(F)(F)F)cc1)C(=O)N1CCC(Oc2cc(C(N)=O)ccn2)CC1, the IC50 is reported as 8720 nM.
CCC[C@H]1N(C(=O)c2cnccc2C(F)(F)F)CCC[C@@]1(Oc1ccc(C(F)(F)F)cc1)C(=O)N1CCC(Oc2cccc(C#N)n2)CC1 gave an IC50 of 686 nM.
Work on CCC[C@H]1N(C(=O)c2cnccc2C(F)(F)F)CCC[C@@]1(Oc1ccc(C(F)(F)F)cc1)C(=O)N1CCC(Oc2cnccn2)CC1 yielded an IC50 of 1060 nM.
CCC[C@H]1N(C(=O)c2cnccc2C(F)(F)F)CCC[C@@]1(Oc1ccc(C(F)(F)F)cc1)C(=O)N1CCC(Oc2ccc(C(N)=O)cn2)CC1 showed an IC50 of 144 nM.
For CCC[C@H]1N(C(=O)c2cnccc2C(F)(F)F)CCC[C@@]1(Oc1ccc(C(F)(F)F)cc1)C(=O)N1CCC(Oc2cc(CN)ccn2)CC1, the IC50 was 4030 nM.
Work on CCC[C@H]1N(C(=O)c2cnccc2C(F)(F)F)CCC[C@@]1(Oc1ccc(C(F)(F)F)cc1)C(=O)N1CCC(Sc2ccc(C)cc2)CC1 yielded an IC50 of 9360 nM.
For CCC[C@H]1N(C(=O)c2cnccc2C(F)(F)F)CCC[C@@]1(Oc1ccc(C(F)(F)F)cc1)C(=O)N1CCC(Oc2cccc(Cl)c2)CC1, the IC50 was 2100 nM.
CCC[C@H]1N(C(=O)c2cnccc2C(F)(F)F)CCC[C@@]1(Oc1ccc(C(F)(F)F)cc1)C(=O)N1CCC(Oc2cccc(C)c2)CC1 showed an IC50 of 668 nM.
Work on CCC[C@H]1N(C(=O)c2cnccc2C(F)(F)F)CCC[C@@]1(Oc1ccc(C(F)(F)F)cc1)C(=O)N1CCC(Oc2cccc(OC)n2)CC1 yielded an IC50 of 1150 nM.
In the case of CCC[C@H]1N(C(=O)c2cnccc2C(F)(F)F)CCC[C@@]1(Oc1ccc(C(F)(F)F)cc1)C(=O)N1CCC(Sc2ccccc2)CC1, the IC50 is reported as 1980 nM.
Compound CCC[C@H]1N(C(=O)c2cnccc2C(F)(F)F)CCC[C@@]1(Oc1ccc(C(F)(F)F)cc1)C(=O)N1CCC(Oc2ccc(C)cc2)CC1 has an IC50 of 8770 nM.
Compound CCC[C@H]1N(C(=O)c2cnccc2C(F)(F)F)CCC[C@@]1(Oc1ccc(C(F)(F)F)cc1)C(=O)N1CCC(Oc2ccccc2C#N)CC1 has an IC50 of 8710 nM.
With CCC[C@H]1N(C(=O)c2cnccc2C(F)(F)F)CCC[C@@]1(Oc1ccc(C(F)(F)F)cc1)C(=O)N1CCC(Oc2ccccc2Cl)CC1 the IC50 was 2760 nM.
Compound CCC[C@H]1N(C(=O)c2cnccc2C(F)(F)F)CCC[C@@]1(Oc1ccc(C(F)(F)F)cc1)C(=O)N1CCC(Oc2ccncn2)CC1 has an IC50 of 376 nM.
Compound CCC[C@H]1N(C(=O)c2cnccc2C(F)(F)F)CCC[C@@]1(Oc1ccc(C(F)(F)F)cc1)C(=O)N1CCC(Oc2cccc(Cl)n2)CC1 has an IC50 of 2360 nM.
Work on CCC[C@H]1N(C(=O)c2cnccc2C(F)(F)F)CCC[C@@]1(Oc1ccc(C(F)(F)F)cc1)C(=O)N1CCC(Oc2ccc(CN)cn2)CC1 yielded an IC50 of 801 nM.

Biological target: Cytochrome P450 2D6 (Homo sapiens, UniProt P10635)
Sequence (P10635 whole entry): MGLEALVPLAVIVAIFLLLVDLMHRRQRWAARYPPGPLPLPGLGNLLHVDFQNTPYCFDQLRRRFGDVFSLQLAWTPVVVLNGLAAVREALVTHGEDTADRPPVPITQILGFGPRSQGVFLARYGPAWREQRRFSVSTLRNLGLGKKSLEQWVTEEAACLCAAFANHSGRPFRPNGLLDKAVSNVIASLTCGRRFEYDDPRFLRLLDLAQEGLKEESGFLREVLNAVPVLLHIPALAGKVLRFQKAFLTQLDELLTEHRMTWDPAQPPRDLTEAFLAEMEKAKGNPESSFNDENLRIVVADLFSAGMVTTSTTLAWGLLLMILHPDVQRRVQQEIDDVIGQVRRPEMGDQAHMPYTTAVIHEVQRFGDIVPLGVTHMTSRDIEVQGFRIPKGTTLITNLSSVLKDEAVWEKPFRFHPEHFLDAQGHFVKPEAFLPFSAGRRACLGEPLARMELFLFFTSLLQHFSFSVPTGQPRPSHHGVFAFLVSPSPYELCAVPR
Test: Inhibition of CYP2D6 (unknown origin)
Assay type: ADME
Details: not given
In the case of CCC[C@H]1N(C(=O)c2cnccc2C(F)(F)F)CCC[C@@]1(Oc1ccc(C(F)(F)F)cc1)C(=O)N1CCC(Oc2cccc(C(=O)O)n2)CC1, the IC50 is reported as > 50000 nM.

Biological target: T1, E3 ubiquitin-protein ligase Mdm2
Test: Binding affinity to human MDM2 by temperature dependent fluorescence assay
Details: not given
O=C(c1cnccc1C(F)(F)F)N1CCCC(Oc2ccc(C(F)(F)F)cc2)(C(=O)N2CCN(c3ccccn3)CC2)C1 (centres undefined) gave a Kd of 500 nM.

Test system: SK-UT-1
Test: Antiproliferative activity against human SK-UT-1 cells expressing mutant p53
Assay type: functional, cell-based
Details: not given
For CCC[C@H]1N(C(=O)c2cnccc2C(F)(F)F)CCC[C@@]1(Oc1ccc(C(F)(F)F)cc1)C(=O)N1CCC(Oc2cccc(C(=O)O)n2)CC1, the IC50 was > 100000 nM.

Test system: not listed separately
Test: Antiproliferative activity against p53 null human HCT116 cells
Assay type: functional, cell-based
Details: HCT-116
In the case of CCC[C@H]1N(C(=O)c2cnccc2C(F)(F)F)CCC[C@@]1(Oc1ccc(C(F)(F)F)cc1)C(=O)N1CCC(Oc2cccc(C(=O)O)n2)CC1, the IC50 is reported as > 100000 nM.

Biological target: Cytochrome P450 3A4 (Homo sapiens, UniProt P08684)
Sequence (P08684 whole entry): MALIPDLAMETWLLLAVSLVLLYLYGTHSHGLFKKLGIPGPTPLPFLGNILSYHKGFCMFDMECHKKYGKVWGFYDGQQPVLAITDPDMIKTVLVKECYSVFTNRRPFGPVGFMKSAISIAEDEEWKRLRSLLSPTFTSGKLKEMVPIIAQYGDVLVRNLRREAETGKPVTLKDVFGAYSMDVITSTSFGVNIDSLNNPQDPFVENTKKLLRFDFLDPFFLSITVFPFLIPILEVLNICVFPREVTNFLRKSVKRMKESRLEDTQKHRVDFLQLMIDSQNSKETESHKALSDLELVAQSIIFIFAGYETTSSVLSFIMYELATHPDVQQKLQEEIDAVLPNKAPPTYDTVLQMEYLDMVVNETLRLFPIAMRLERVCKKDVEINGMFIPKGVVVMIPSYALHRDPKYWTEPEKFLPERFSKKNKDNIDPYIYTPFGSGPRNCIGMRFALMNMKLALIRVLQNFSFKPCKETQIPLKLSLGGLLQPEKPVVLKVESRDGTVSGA
Test: Inhibition of CYP3A4 (unknown origin)
Assay type: ADME
Details: not given
With CCC[C@H]1N(C(=O)c2cnccc2C(F)(F)F)CCC[C@@]1(Oc1ccc(C(F)(F)F)cc1)C(=O)N1CCC(Oc2cccc(C(=O)O)n2)CC1 the IC50 was > 50000 nM.

Biological target: Cytochrome P450 2C9 (Homo sapiens, UniProt P11712)
Sequence (P11712 whole entry): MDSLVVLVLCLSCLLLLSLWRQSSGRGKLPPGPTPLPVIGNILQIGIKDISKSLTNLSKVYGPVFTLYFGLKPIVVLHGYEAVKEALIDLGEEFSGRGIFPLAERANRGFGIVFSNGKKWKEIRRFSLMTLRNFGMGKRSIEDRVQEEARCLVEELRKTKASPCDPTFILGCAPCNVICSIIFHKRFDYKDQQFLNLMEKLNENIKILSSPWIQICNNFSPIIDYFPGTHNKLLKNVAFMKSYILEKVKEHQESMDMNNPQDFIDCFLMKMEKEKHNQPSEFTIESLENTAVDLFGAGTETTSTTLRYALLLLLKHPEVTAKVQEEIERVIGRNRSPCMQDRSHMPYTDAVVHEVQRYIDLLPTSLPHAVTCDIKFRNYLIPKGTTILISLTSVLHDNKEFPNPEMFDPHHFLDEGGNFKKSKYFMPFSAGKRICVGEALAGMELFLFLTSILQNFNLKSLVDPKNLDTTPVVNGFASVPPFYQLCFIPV
Test: Inhibition of CYP2C9 (unknown origin)
Assay type: ADME
Details: not given
With CCC[C@H]1N(C(=O)c2cnccc2C(F)(F)F)CCC[C@@]1(Oc1ccc(C(F)(F)F)cc1)C(=O)N1CCC(Oc2cccc(C(=O)O)n2)CC1 the IC50 was > 50000 nM.

Test system: not listed separately
Test: Antiproliferative activity against human HCT116 cells expressing wild type p53
Assay type: functional, cell-based
Details: HCT-116
Work on CCC[C@H]1N(C(=O)c2cnccc2C(F)(F)F)CCC[C@@]1(Oc1ccc(C(F)(F)F)cc1)C(=O)N1CCC(Oc2cccc(C(=O)O)n2)CC1 yielded an IC50 of 8650 nM.

Test system: not listed separately
Test: Antiproliferative activity against human SJSA1 cells expressing wild type p53
Assay type: functional, cell-based
Details: SJSA-1
In the case of CCC[C@H]1N(C(=O)c2cnccc2C(F)(F)F)CCC[C@@]1(Oc1ccc(C(F)(F)F)cc1)C(=O)N1CCC(Oc2cccc(C(=O)O)n2)CC1, the IC50 is reported as 4650 nM.
